The structures appear in SMILES notation. In brackets after ≈: the same amount, converted by molar mass. Where a name gives a salt, the structure may show the parent alone.

As a reminder, the IC50 is the point on the concentration scale where inhibition reaches its midpoint.

tyrosine-specific protein kinase derived from Rous sarcoma virus (src gene pp60^src), sequence (P00524 2-526): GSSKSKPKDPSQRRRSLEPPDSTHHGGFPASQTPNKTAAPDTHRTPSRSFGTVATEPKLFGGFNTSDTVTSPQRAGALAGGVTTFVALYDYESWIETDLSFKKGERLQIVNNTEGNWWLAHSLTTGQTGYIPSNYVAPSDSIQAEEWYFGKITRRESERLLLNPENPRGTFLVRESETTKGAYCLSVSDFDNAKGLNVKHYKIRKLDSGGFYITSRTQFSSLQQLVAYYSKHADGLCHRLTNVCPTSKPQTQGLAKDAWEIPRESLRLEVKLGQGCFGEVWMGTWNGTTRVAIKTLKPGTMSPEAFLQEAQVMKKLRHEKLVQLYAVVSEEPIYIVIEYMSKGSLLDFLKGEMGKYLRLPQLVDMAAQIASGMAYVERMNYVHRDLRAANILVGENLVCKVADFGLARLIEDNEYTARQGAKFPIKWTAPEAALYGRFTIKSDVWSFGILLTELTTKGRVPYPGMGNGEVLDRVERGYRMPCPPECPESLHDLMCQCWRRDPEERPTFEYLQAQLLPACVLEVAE

The first assay concerns the target tyrosine-specific protein kinase derived from Rous sarcoma virus (src gene pp60^src) (Rous sarcoma virus (strain Schmidt-Ruppin A), UniProt P00524). Kind of assay: Inhibitory action against tyrosine-specific protein kinase activity. Format: biochemical.
Details: not given
How it is done: The inhibitory action against tyrosine-specific protein kinase activity of the compounds of this invention was measured according to the method described below using tyrosine-specific protein kinase derived from Rous sarcoma virus (src gene pp60^src).
Measurement of tyrosine-specific protein kinase activity (src gene pp60^src derived from Rous sarcoma virus) (refer to M. S. Colet, R. L. Ericson: Proceeding of the National Academy of Sciences of U.S.A., 75, 2021-2024, 1978).
3Y1 cells (fibroblasts derived from fetal rat kidney) transformed by Rous sarcome virus (RSV) were cultured, the cultured cells were collected and washed, RIPA buffer solution [containing 0.5% NP40, 0.1% sodium deoxycholate, 50 mM Tris-HCl (pH 7.2), 1 mM phenylmethylsulfonyl fluoride (PMSF) and 0.15M NaCl] was added to the collected cells, the mixture was allowed to stand at 0° C. for 30 minutes to effect solubilization, and the resulting mixture was centrifuged (100,000× g, 20 minutes). To the supernatant thus collected, was added antiserum obtained from a rabbit cancered by inoculation of RSV, the mixture was incubated at 0° C. for 30 to 60 minutes to cause pp60^src to react with antibody, and the immune complex was isolated by mixing with protein A/Sepharose-4B (Pharmacia) and washed with RIPA buffer. The total complex thus obtained (pp60^src /antibody/protein A/Sepharose-4B) was treated in a solution containing 20 mM Pipes/NaOH (pH 7.2), 5 mM MgCl2, 1 mM DTT and 10 μM [γ-^32 p]ATP (2 mCi/mMol) at 30° C. for five minutes to effect protein kinase reaction, which was terminated by addition a terminating solution containing SDS followed by boiling for three minutes. The reaction mixture was subjected to electrophoresis on 8% SDS/polyacrylamide gel and then to autoradiography, and the radioactivity of cut-out pp60^src band was measured on a liquid scintillation counter, thus quantifying the protein kinase reaction and calculating IC50 value.
Compound `CCOC(=O)C(=O)Oc1ccc(-c2c(C(=O)OCC)oc3cc(O)cc(O)c3c2=O)cc1` [Example 1, ethyl 4'-ethoxalyloxy-5,7-dihydroxy-2-isoflavonecarboxylate] had a half-inhibitory concentration (IC50) of 2.26 µM.
Same read-out and setting: with `COc1ccc(-c2c(CN(C)C)oc3cc(O)cc(O)c3c2=O)cc1` [Example 2, 2-(dimethylaminomethyl)-5,7-dihydroxy-4'-methoxyisoflavone hydrochloride] the figure was > 293 µM; with `COc1ccc(-c2c(CNC3CCCCC3)oc3cc(O)cc(O)c3c2=O)cc1` [Example 3, 2-(Cyclohexylaminomethyl)-5,7-dihydroxy-4'-methoxyisoflavone hydrochloride], > 253 µM; with `COc1ccc(-c2c(CNCCO)oc3cc(O)cc(O)c3c2=O)cc1.Cl` [Example 4, 5,7-Dihydroxy-2-[(2-hydroxyethylamino)methyl]-4'-methoxyisoflavone hydrochloride], > 254 µM.
As to `O=c1c(-c2ccc(O)cc2)c(CNC2=NCCS2)oc2cc(O)cc(O)c12` [Example 6, 4',5,7-Trihydroxy-2-[(2-thiazolin-2-ylamino)methyl]isoflavone], the IC50 is 39 µM.
`CNC(=O)c1oc2cc(O)cc(O)c2c(=O)c1-c1ccc(O)cc1` [Example 8, 4',5,7-trihydroxy-N-methyl-2-isoflavonecarboxamide] gave an IC50 of 45.8 µM.
The same measure, in the same setting: the figure for `O=C(NCCO)c1oc2cc(O)cc(O)c2c(=O)c1-c1ccc(O)cc1` [Example 9, 4',5,7-trihydroxy-N-(2-hydroxyethyl)-2-isoflavonecarboxamide] is 42 µM.
The same measure, in the same setting: with `O=c1c(-c2ccc(O)cc2)c(CSCC(O)CO)oc2cc(O)cc(O)c12` (stereo not drawn) [Example 13, 2-[[(2,3-Dihydroxypropyl)thio]methyl]-4', 5,7-trihydroxyisoflavone] the figure was 10.2 µM.
With `O=C(O)CCSCc1oc2cc(O)cc(O)c2c(=O)c1-c1ccc(O)cc1` [Example 14], inhibition was half-maximal at 25.7 µM (IC50).
On the same count and under the same terms, the figure for `COCCOC(=O)c1oc2cc(O)cc(O)c2c(=O)c1-c1ccc(O)cc1` [Example 17, Methoxyethyl 4',5,7-trihydroxy-2-isoflavonecarboxylate] is 16.1 µM.

For a further assay, the system named is RSV-3Y1 cells. As to the kind of experiment: Inhibitory action against the growth of tumor cells (RSV-3Y1 cells). Format: cell-based. The following applies: Rattus norvegicus, live cells counted after 1, 2, 3 and 4 days using trypan blue, read-out: IC50, Inhibition against the growth of RSV-3Y1. Here is the method:
The inhibitory action of the compounds of this invention against the growth of tumor cells was examined by using cells of rats transformed by Rous sarcoma virus (RSV-3Y1 cells).
The inhibitory actions of the compounds of Examples 1 through 17 against the tyrosine-specific protein kinase activity and against the growth of RSV-3Y1 cells were measured according to the methods described earlier.
Regarding `CCOC(=O)C(=O)Oc1ccc(-c2c(C(=O)OCC)oc3cc(O)cc(O)c3c2=O)cc1` [Example 1, ethyl 4'-ethoxalyloxy-5,7-dihydroxy-2-isoflavonecarboxylate], the concentration for half-maximal inhibition (IC50) is > 100 µg/mL.
The same measure, in the same setting: the figure for `COc1ccc(-c2c(CN(C)C)oc3cc(O)cc(O)c3c2=O)cc1` [Example 2, 2-(dimethylaminomethyl)-5,7-dihydroxy-4'-methoxyisoflavone hydrochloride] is 18 µg/mL; for `COc1ccc(-c2c(CNC3CCCCC3)oc3cc(O)cc(O)c3c2=O)cc1` [Example 3, 2-(Cyclohexylaminomethyl)-5,7-dihydroxy-4'-methoxyisoflavone hydrochloride] it is 16 µg/mL.
Still for that read-out and setting: the figure for `COc1ccc(-c2c(CNCCO)oc3cc(O)cc(O)c3c2=O)cc1.Cl` [Example 4, 5,7-Dihydroxy-2-[(2-hydroxyethylamino)methyl]-4'-methoxyisoflavone hydrochloride] is > 100 µg/mL; for `O=c1c(-c2ccc(O)cc2)c(CN2CCCCC2)oc2cc(O)cc(O)c12` [Example 5, 4',5,7-trihydroxy-2-piperidinomethylisoflavone] it is 9.5 µg/mL (≈ 25.9 µM); for `O=c1c(-c2ccc(O)cc2)c(CNC2=NCCS2)oc2cc(O)cc(O)c12` [Example 6, 4',5,7-Trihydroxy-2-[(2-thiazolin-2-ylamino)methyl]isoflavone] it is > 100 µg/mL.
The same measure, in the same setting: the figure for `NC(=O)c1oc2cc(O)cc(O)c2c(=O)c1-c1ccc(O)cc1` [Example 7, 4',5,7-trihydroxy-2-isoflavonecarboxamide] is > 100 µg/mL; for `CNC(=O)c1oc2cc(O)cc(O)c2c(=O)c1-c1ccc(O)cc1` [Example 8, 4',5,7-trihydroxy-N-methyl-2-isoflavonecarboxamide] it is > 100 µg/mL; for `O=C(NCCO)c1oc2cc(O)cc(O)c2c(=O)c1-c1ccc(O)cc1` [Example 9, 4',5,7-trihydroxy-N-(2-hydroxyethyl)-2-isoflavonecarboxamide] it is > 100 µg/mL.
`CSCc1oc2cc(O)cc(O)c2c(=O)c1-c1ccc(O)cc1` [Example 10, 4',5,7-trihydroxy-2-(methylthiomethyl)isoflavone]: the half-inhibitory concentration (IC50) turned out to be 20 µg/mL (≈ 60.5 µM).
On the same count and under the same terms, the figure for `O=c1c(-c2ccc(O)cc2)c(CSC2=NCCS2)oc2cc(O)cc(O)c12` [Example 11] is 20 µg/mL (≈ 49.8 µM).
Still for that read-out and setting: with `CCOC(=O)CSCc1oc2cc(O)cc(O)c2c(=O)c1-c1ccc(O)cc1` [Example 12, Ethyl [[(4',5,7-trihydroxy-2-isoflavonyl)methyl]thio]acetate] the figure was > 100 µg/mL.
On to `O=c1c(-c2ccc(O)cc2)c(CSCC(O)CO)oc2cc(O)cc(O)c12` (stereo not drawn) [Example 13, 2-[[(2,3-Dihydroxypropyl)thio]methyl]-4', 5,7-trihydroxyisoflavone], for which the IC50 was > 100 µg/mL.
Same read-out and setting: the figure for `O=C(O)CCSCc1oc2cc(O)cc(O)c2c(=O)c1-c1ccc(O)cc1` [Example 14] is 90 µg/mL (≈ 232 µM).
As to `COC(=O)c1oc2cc(O)cc(O)c2c(=O)c1-c1ccc(O)cc1` [Example 15], the IC50 was found to be 60 µg/mL (≈ 183 µM).
Still for that read-out and setting: the figure for `CC(C)OC(=O)c1oc2cc(O)cc(O)c2c(=O)c1-c1ccc(O)cc1` [Example 16, isopropyl 4',5,7-trihydroxy-2-isoflavonecarboxylate] is 25 µg/mL (≈ 70.2 µM); for `COCCOC(=O)c1oc2cc(O)cc(O)c2c(=O)c1-c1ccc(O)cc1` [Example 17, Methoxyethyl 4',5,7-trihydroxy-2-isoflavonecarboxylate] it is 60 µg/mL (≈ 161 µM).

The next assay deals with antibody-forming cells (ovine erythrocytes immunization). As to the kind of experiment: Immunosuppressive action: antibody-formation inhibition (hemolytic plaques, antibody-forming cells in the spleen). It counts as in vivo, male ddy mouse. The following applies: 1 mg/Kg for each administration, abdominal injection, once a day over four days, mouse.
Experimental: The spleen was taken out five days after immunization, and the number of antibody-formingcells contained in it was measured as follows according to the method of Cunningham [Cunningham A. J.: Nature, 207, 1106 (1965)]. The splenetic cells were suspended in Eagle's MEM (Nissui Pharmaceutical), ovine erythrocytes and guinea-pig complement were added to this suspension, the resulting mixture was put in a Cunningham chamber (with its both ends sealed with paraffin) and incubated at 37° C. for 90 minutes, and the number of hemolytic plaques (a) (the number of antibody-forming cells) was counted.
Similarly, the number of hemolytic plaques (b) was measured with a mouse not injected with the compound of this invention (control). The antibody-formation inhibition rate was calculated according to the following equation: [formula]
`CCOC(=O)C(=O)Oc1ccc(-c2c(C(=O)OCC)oc3cc(O)cc(O)c3c2=O)cc1` [Example 1, ethyl 4'-ethoxalyloxy-5,7-dihydroxy-2-isoflavonecarboxylate] came in with an Antibody-formation inhibition rate of 14.4%.

The assay is the same for the next values; noted with them: 5 mg/Kg for each administration, abdominal injection, once a day over four days, mouse.
`CCOC(=O)C(=O)Oc1ccc(-c2c(C(=O)OCC)oc3cc(O)cc(O)c3c2=O)cc1` [Example 1, ethyl 4'-ethoxalyloxy-5,7-dihydroxy-2-isoflavonecarboxylate]: the Antibody-formation inhibition rate came out at 28.7%.
For the compound `CCOC(=O)CSCc1oc2cc(O)cc(O)c2c(=O)c1-c1ccc(O)cc1` [Example 12, Ethyl [[(4',5,7-trihydroxy-2-isoflavonyl)methyl]thio]acetate], the Antibody-formation inhibition rate is reported as 25.3%.
Still for that read-out and setting: the figure for `O=c1c(-c2ccc(O)cc2)c(CSCC(O)CO)oc2cc(O)cc(O)c12` (stereo not drawn) [Example 13, 2-[[(2,3-Dihydroxypropyl)thio]methyl]-4', 5,7-trihydroxyisoflavone] is 27.0%.

Staying with this assay, now noted: 25 mg/Kg for each administration, abdominal injection, once a day over four days, mouse.
For the compound `CCOC(=O)C(=O)Oc1ccc(-c2c(C(=O)OCC)oc3cc(O)cc(O)c3c2=O)cc1` [Example 1, ethyl 4'-ethoxalyloxy-5,7-dihydroxy-2-isoflavonecarboxylate], the Antibody-formation inhibition rate turned out to be 40.0%.
In turn, `CCOC(=O)CSCc1oc2cc(O)cc(O)c2c(=O)c1-c1ccc(O)cc1` [Example 12, Ethyl [[(4',5,7-trihydroxy-2-isoflavonyl)methyl]thio]acetate] returned an Antibody-formation inhibition rate of 50.0%.
The same measure, in the same setting: the figure for `O=c1c(-c2ccc(O)cc2)c(CSCC(O)CO)oc2cc(O)cc(O)c12` (stereo not drawn) [Example 13, 2-[[(2,3-Dihydroxypropyl)thio]methyl]-4', 5,7-trihydroxyisoflavone] is 76.6%.

The assay is the same for the next values; noted with them: 50 mg/Kg for each administration, abdominal injection, once a day over four days, mouse.
In turn, `CCOC(=O)C(=O)Oc1ccc(-c2c(C(=O)OCC)oc3cc(O)cc(O)c3c2=O)cc1` [Example 1, ethyl 4'-ethoxalyloxy-5,7-dihydroxy-2-isoflavonecarboxylate] gave an Antibody-formation inhibition rate of 75.8%.

Tested on in a further assay: not given
Experiment: not given
The following applies: reported in J.A.C.S. (page 3447, 1951); cited from earlier work.
As for `O=c1c(-c2ccc(O)cc2)coc2cc(O)cc(O)c12` [genistein, 5,7,4'-trihydroxyisoflavone], the estrogenic action result is “weak estrogenic action”.

The values are drawn from US4960908A, “Isoflavone derivatives, salts thereof, and oncostatic and immunosuppressive agents” (Yamanouchi Pharmaceutical Co., Ltd., priority 1985, dated 1990).
